Laboratory results published in US20090105218A1, “CRTH2 Receptor Ligands For Therapeutic Use” (7TM PHARMA A/S, priority 2004, published 2009).

Biological target: T1, human CRTH2 receptor (Homo sapiens, UniProt Q9Y5Y4, V204A)
T1 construct: expressed in transfected cells; host or cells: COS-7 (transient transfection)
T1 sequence (Q9Y5Y4 1-395 V204A): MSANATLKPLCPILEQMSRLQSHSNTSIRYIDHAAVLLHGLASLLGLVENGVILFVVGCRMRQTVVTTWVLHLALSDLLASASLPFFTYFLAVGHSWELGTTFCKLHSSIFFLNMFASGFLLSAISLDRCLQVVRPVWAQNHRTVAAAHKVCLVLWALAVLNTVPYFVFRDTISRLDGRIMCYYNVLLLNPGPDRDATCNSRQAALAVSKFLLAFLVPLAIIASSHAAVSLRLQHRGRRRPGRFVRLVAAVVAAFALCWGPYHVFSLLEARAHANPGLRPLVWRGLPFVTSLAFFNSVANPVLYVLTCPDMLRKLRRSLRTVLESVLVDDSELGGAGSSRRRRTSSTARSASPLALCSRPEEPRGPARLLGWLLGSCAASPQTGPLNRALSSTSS
Assay: CRTH2 receptor binding assay ([3H]PGD2 competition on whole transfected cells)
Conditions: competition binding with 0.1 nM [3H]PGD2, whole cells expressing CRTH2, 3 h at 4° C.
Description: Generation/origin of the cDNA Constructs. The coding sequence of the human CRTH2 receptor (genbank accession no NM_004778) was amplified by PCR from a human hippocampus cDNA library and inserted into the pcDNA3.1(+) expression vector (invitrogen) via 5′ HindIII and 3′ EcoRI. The sequence identity of the construct was verified by restriction endonuclease digests and sequencing in both directions on an ABI Prism (Applied Biosystems, Foster City, Calif.).
Cell Culture and Transfection. COS-7 cells were grown in Dulbecco's modified Eagle's medium (DMEM) 1885 supplemented with 10% fetal bovine serum, 100 units/ml penicillin, […] streptomycin, and kept at 37° C. in a 10% CO2 atmosphere. HEK293 cells were maintained in Minimum Essential medium (MEM) supplemented with 10% (v/v) heat inactivated fetal calf serum (HIFCS), 2 mM Glutamax™-I, 1% non essential amino acids (NEAA), 1% sodium pyruvate and 10 μg/ml gentamicin. For binding experiments, COS7 cells were transiently transfected with the CRTH2 receptor using a calcium phosphate-DNA coprecipitation method with the addition of chloroquine (as described by Holst B, Hastrup H, Raffetseder U, Martini L, Schwartz T W. J Biol. Chem. 2001 Jun. 8; 276(23):19793-9.)
Binding assay. 24 h after transfection COS-7 cells were seeded into 96 well plates at a density of 30.000 cells/well. Competition binding experiments on whole cells were then performed about 18-24 h later using 0.1 nM [^3H]PGD2 (NEN, 172 Ci/mmol) in a binding buffer consisting of HBSS (GIBCO) and 10 mM HEPES. Competing ligands were diluted in DMSO which was kept constant at 1% (v/v) of the final incubation volume. Total and nonspecific binding were determined in the absence and presence of 10 μM PGD2. Binding reactions were routinely conducted for 3 h at 4° C. and terminated by 2 washes (100 μl each) with ice cold binding buffer. Radioactivity was determined by liquid scintillation counting in a TOPCOUNTER (Packard) following over night incubation in Microscint 20. Stable HEK293 cells were seeded at a density of 30.000 cells/well 18-24 h prior to the binding assay which was performed essentially as described for COS7 cells above. Determinations were made in duplicates.
Curve analysis was performed with the GraphPadPrism software 3.0 (Graphpad Prism Inc., San Diego, USA) and IC50 values were calculated as a measure of the antagonistic potencies.

Row | Structure (SMILES) | IC50
1 | O=C(COc1ccc(Cl)cc1)Nc1cccc(C(=O)Nc2ccccc2C(=O)O)c1 [B1, 2-{3-[2-(4-Chlorophenoxy)acetylamino]benzoylamino}benzoic acid] | < 500 nM
2 | O=C(/C=C/c1ccc(OC(F)(F)F)cc1)Nc1cccc(C(=O)Nc2ccccc2C(=O)O)c1 [B2, 2-{3-[(E)-3-(4-Trifluoromethoxyphenyl)acryloylamino]benzoylamino}benzoic acid] | < 500 nM
3 | O=C(COc1ccc(Cl)cc1Cl)Nc1cccc(C(=O)Nc2ccccc2C(=O)O)c1 [B3, 2-{3-[2-(2,4-Dichlorophenoxy)acetylamino]benzoylamino}-benzoic acid] | < 500 nM
4 | O=C(CCc1ccccc1)Nc1cccc(C(=O)Nc2ccccc2C(=O)O)c1 [B4, 2-[3-(3-Phenylpropionylamino)benzoylamino]benzoic acid] | 500 to 5000 nM
5 | Cc1ccc(S(=O)(=O)Nc2cccc(C(=O)Nc3ccccc3C(=O)O)c2)cc1 [B5, 2-[3-(Toluene-4-sulfonylamino)benzoylamino]benzoic acid] | 500 to 5000 nM
6 | C/C(=C\c1ccccc1)C(=O)Nc1cccc(C(=O)Nc2ccccc2C(=O)O)c1 [B6, 2-[3-((E)-2-Methyl-3-phenylacryloylamino)benzoylamino]benzoic acid] | 500 to 5000 nM
7 | O=C(Nc1ccccc1C(=O)O)c1cccc(NS(=O)(=O)c2ccc(F)cc2)c1 [B7, 2-[3-(4-Fluoro-benzenesulfonylamino)benzoylamino]benzoic acid] | 500 to 5000 nM
8 | O=C(Nc1ccc(OC(F)(F)F)cc1)Nc1cccc(C(=O)Nc2ccccc2C(=O)O)c1 [B8, 2-{3-[3-(4-Trifluoromethoxyphenyl)ureido]benzoylamino}benzoic acid] | 500 to 5000 nM
9 | COc1ccc(C(=O)Nc2cccc(C(=O)Nc3ccccc3C(=O)O)c2)cc1OC [B9, 2-[3-(3,4-Dimethoxybenzoylamino)benzoylamino]benzoic acid] | 500 to 5000 nM
10 | O=C(COCc1ccccc1)Nc1cccc(C(=O)Nc2ccccc2C(=O)O)c1 [B10, 2-[3-(2-Benzyloxyacetylamino)benzoylamino]benzoic acid] | 500 to 5000 nM
11 | COc1ccc(C(=O)Nc2cccc(C(=O)Nc3ccccc3C(=O)O)c2)cc1 [B11, 2-[3-(4-Methoxybenzoylamino)benzoylamino]benzoic acid] | 500 to 5000 nM
12 | O=C(COc1ccc(Cl)cc1)Nc1cc(C(=O)Nc2ccc(I)cc2C(=O)O)ccc1Cl [B12, 2-{4-Chloro-3-[2-(4-chloro-phenoxy)acetylamino]benzoylamino}-5-iodobenzoic acid] | 500 to 5000 nM
13 | O=C(Nc1ccc(Br)cc1C(=O)O)c1cccc(S(=O)(=O)Nc2ccc(Cl)nc2)c1 [B13, 5-Bromo-2-[3-(6-chloropyridin-3-ylsulfamoyl)benzoylamino]benzoic acid] | 500 to 5000 nM
14 | O=C(Nc1ccc(Br)cc1C(=O)O)c1cccc(S(=O)(=O)Nc2ccc(OC(F)(F)F)cc2)c1 [B14, 5-Bromo-2-[3-(4-trifluoromethoxyphenylsulfamoyl)benzoylamino]benzoic acid] | 500 to 5000 nM
15 | O=C(Nc1ccc(Br)cc1C(=O)O)c1cccc(S(=O)(=O)Nc2ccc(Br)cc2)c1 [B15, 5-Bromo-2-[3-(4-bromophenylsulfamoyl)benzoylamino]benzoic acid] | < 500 nM
16 | O=C(Nc1ccc(Br)cc1C(=O)O)c1cccc(S(=O)(=O)Nc2cccc(Oc3ccccc3)c2)c1 [B16, 5-Bromo-2-[3-(3-phenoxyphenylsulfamoyl)benzoylamino]benzoic acid] | < 500 nM
17 | O=C(Nc1ccc(Br)cc1C(=O)O)c1cccc(S(=O)(=O)Nc2ccc(I)cc2)c1 [B17, 5-Bromo-2-[3-(4-iodophenylsulfamoyl)benzoylamino]benzoic acid] | < 500 nM
18 | O=C(Nc1ccccc1C(=O)O)c1ccc(Br)c(S(=O)(=O)Nc2ccc(Cl)nc2)c1 [B18, 2-[4-Bromo-3-(6-chloropyridin-3-ylsulfamoyl)benzoylamino]benzoic acid] | 500 to 5000 nM

Row | Structure (SMILES) | IC50
19 | O=C(Nc1ccccc1C(=O)O)c1ccc(Br)c(S(=O)(=O)Nc2ccc(OC(F)(F)F)cc2)c1 [B19, 2-[4-Bromo-3-(4-trifluoromethoxyphenylsulfamoyl)benzoylamino]benzoic acid] | < 500 nM
20 | Cc1c(S(=O)(=O)Nc2ccc(OC(F)(F)F)cc2)csc1C(=O)Nc1ccccc1C(=O)O [B20, 2-[3-Methyl-4-(4-trifluoromethoxyphenylsulfamoyl)thiophene-2-carbonylamino]benzoic acid] | < 500 nM
21 | O=C(Nc1ccccc1C(=O)O)c1ccc(Br)c(S(=O)(=O)Nc2cccc(Oc3ccccc3)c2)c1 [B21, 2-[4-Bromo-3-(3-phenoxyphenylsulfamoyl)benzoylamino]benzoic acid] | < 500 nM
22 | Cc1c(S(=O)(=O)Nc2cccc(Oc3ccccc3)c2)csc1C(=O)Nc1ccccc1C(=O)O [B22, 2-[3-Methyl-4-(3-phenoxyphenylsulfamoyl)thiophene-2-carbonylamino]-benzoic acid] | 500 to 5000 nM
23 | O=C(Nc1ccccc1C(=O)O)c1ccc(Br)c(S(=O)(=O)Nc2ccc(I)cc2)c1 [B23, 2-[4-Bromo-3-(4-iodophenylsulfamoyl)benzoylamino]benzoic acid] | < 500 nM
24 | Cc1c(S(=O)(=O)Nc2ccc(I)cc2)csc1C(=O)Nc1ccccc1C(=O)O [B24, 2-[4-(4-Iodophenylsulfamoyl)-3-methylthiophene-2-carbonylamino]benzoic acid] | < 500 nM
25 | Cc1c(S(=O)(=O)Nc2ccc(Br)cc2)csc1C(=O)Nc1ccccc1C(=O)O [B25, 2-[4-(4-Bromophenylsulfamoyl)-3-methylthiophene-2-carbonylamino]-benzoic acid] | < 500 nM
26 | O=C(Nc1ccc(Br)cc1C(=O)O)c1ccc(Br)c(S(=O)(=O)Nc2ccc(Br)cc2)c1 [B26, 5-Bromo-2-[4-bromo-3-(4-bromophenylsulfamoyl)benzoylamino]benzoic acid] | < 500 nM
27 | Cc1c(S(=O)(=O)Nc2ccc(Br)cc2)csc1C(=O)Nc1ccc(Br)cc1C(=O)O [B27, 5-Bromo-2-[4-(4-bromophenylsulfamoyl)-3-methylthiophene-2-carbonylamino]benzoic acid] | < 500 nM
28 | O=C(Nc1ccc(Br)cc1C(=O)O)c1cccc(S(=O)(=O)Nc2ccc(Cl)cc2)c1 [B28, 5-Bromo-2-[3-(4-chlorophenylsulfamoyl)benzoylamino]benzoic acid] | < 500 nM
29 | O=C(Nc1ccc(Br)cc1C(=O)O)c1cccc(S(=O)(=O)Nc2ccc(F)cc2)c1 [B29, 5-Bromo-2-[3-(4-fluorophenylsulfamoyl)benzoylamino]benzoic acid] | < 500 nM
30 | O=C(Nc1ccc(Cl)cc1C(=O)O)c1cccc(S(=O)(=O)Nc2ccc(Cl)cc2)c1 [B30, 5-Chloro-2-[3-(4-chlorophenylsulfamoyl)benzoylamino]benzoic acid] | < 500 nM
31 | O=C(Nc1ccc(Cl)cc1C(=O)O)c1cccc(S(=O)(=O)Nc2ccc(F)cc2)c1 [B31, 5-Chloro-2-[3-(4-fluorophenylsulfamoyl)benzoylamino]benzoic acid] | < 500 nM
32 | Cc1ccc(OCC(=O)Nc2cccc(C(=O)Nc3ccccc3C(=O)O)c2)cc1C [B32] | < 500 nM
33 | O=C(Nc1ccccc1C(=O)O)c1cccc(NC(=O)c2cccs2)c1 [B33] | 500 to 5000 nM
34 | COc1cc(C(=O)Nc2cccc(C(=O)Nc3ccccc3C(=O)O)c2)cc(OC)c1OC [B34] | 500 to 5000 nM
35 | O=C(Nc1ccccc1C(=O)O)c1cccc(NC(=O)c2ccco2)c1 [B35] | > 5000 nM
36 | O=C(Nc1ccccc1C(=O)O)c1cccc(NC(=O)C(c2ccccc2)c2ccccc2)c1 [B36] | < 500 nM
